Assay results as given in patent US6900219B2, “ABCA-1 elevating compounds” (CV Therapeutics, Inc., priority 2002, dated 2005).

test system: ABCA-1 gene; assay: compounds tested and found to elevate cellular expression of the ABCA-1 gene (Examples 1-6; test not named); assay type: cell-based
Experimental: Activity testing is conducted as described in those patents and patent applications referenced above, and in the Examples below, and by methods apparent to one skilled in the art.

Row | Molecule | cellular expression of the ABCA-1 gene
1 | COC(=O)c1ccc(/N=C(\NC2CCCCC2)N2CCN(Cc3ccc4c(c3)OCO4)CC2)c(O)c1 [methyl 4-{(1E)-1-aza-2-[4-(2H-benzo[d]1,3-dioxolen-5-ylmethyl)piperazinyl]-2-(cyclohexylamino)vinyl}-3-hydroxybenzoate] | elevate cellular expression of the ABCA-1 gene
2 | Nc1c(C(=O)Oc2ccccc2)oc2nc3c(cc12)CCC3 [phenyl 3-amino-5,6,7-trihydrocyclopenta[1,2-b]furano[4,5-e]pyridine-2-carboxylate] | elevate cellular expression of the ABCA-1 gene
3 | O=C(NC1=NCCS1)c1ccccc1 [phenyl-N-(1,3-thiazolin-2-yl)carboxamide] | elevate cellular expression of the ABCA-1 gene
4 | O=C(NCCc1ccccn1)c1ccccc1 [phenyl-N-(2-(2-pyridyl)ethyl)carboxamide] | elevate cellular expression of the ABCA-1 gene
5 | O=C1CSC(NC(=O)c2ccccc2)=N1 [phenyl-N-(4-oxo(1,3-thiazolin-2-yl))carboxamide] | elevate cellular expression of the ABCA-1 gene
6 | CCc1c(C(=O)NCC(C)C)cnn1-c1nc(-c2ccc(Br)cc2)cs1 [{1-[4-(4-bromophenyl)(1,3-thiazol-2-yl)]-5-ethylpyrazol-4-yl}-N-(2-methylpropyl)carboxamide] | elevate cellular expression of the ABCA-1 gene
7 | CCCCCCNC(=O)c1cnn(-c2nc(-c3ccc(Br)cc3)cs2)c1CC [{1-[4-(4-bromophenyl)(1,3-thiazol-2-yl)]-5-ethylpyrazol-4-yl}-N-hexylcarboxamide] | elevate cellular expression of the ABCA-1 gene
8 | CCc1c(C(=O)N2CCN(C(=O)c3ccc4ccccc4c3)C(C)C2)cnn1-c1nc(-c2ccc(Cl)cc2)cs1 (stereo not shown) [{1-[4-(4-chloro-phenyl)-thiazol-2-yl]-5-ethyl-1H-pyrazol-4-yl}-[3-methyl-4-(naphthalene-2-carbonyl)-piperazin-1-yl]-methanone] | elevate cellular expression of the ABCA-1 gene
9 | Cc1c(C(=O)NCc2ccccc2)cnn1-c1nc(-c2ccc(Cl)cc2)cs1 [{1-[4-(4-chlorophenyl)(1,3-thiazol-2-yl)]-5-methylpyrazol-4-yl}-N-benzylcarboxamide] | elevate cellular expression of the ABCA-1 gene
10 | Cc1c(C(=O)NC2CC2)cnn1-c1nc(C(C)(C)C)cs1 [{1-[4-(tert-butyl)(1,3-thiazol-2-yl)]-5-methylpyrazol-4-yl}-N-cyclopropylcarboxamide] | elevate cellular expression of the ABCA-1 gene
11 | CCc1c(C(=O)NCCC(C)C)cnn1-c1nc(-c2ccc(OC)cc2)cs1 [{5-ethyl-1-[4-(4-methoxyphenyl)(1,3-thiazol-2-yl)]pyrazol-4-yl}-N-(3-methylbutyl)carboxamide] | elevate cellular expression of the ABCA-1 gene
12 | CCc1c(C(=O)NCCc2ccccc2)cnn1-c1nc(-c2ccc(C)cc2)cs1 [{5-ethyl-1-[4-(4-methylphenyl)(1,3-thiazol-2-yl)]pyrazol-4-yl}-N-(2-phenylethyl)carboxamide] | elevate cellular expression of the ABCA-1 gene
13 | Cc1c(C(=O)NCCc2ccccc2)cnn1-c1nc(-c2ccc(F)cc2)cs1 [{5-methyl-1-[4-(4-fluorophenyl)(1,3-thiazol-2-yl)]pyrazol-4-yl}-N-(2-phenylethyl)carboxamide] | elevate cellular expression of the ABCA-1 gene
14 | CCCCNC(=O)c1cnn(-c2nc(-c3ccc(C)cc3)cs2)c1C [{5-methyl-1-[4-(4-methylphenyl)(1,3-thiazol-2-yl)]pyrazol-4-yl}-N-butylcarboxamide] | elevate cellular expression of the ABCA-1 gene
15 | CCCCCNC(=O)c1cnn(-c2nc(-c3ccc(C)cc3)cs2)c1C [{5-methyl-1-[4-(4-methylphenyl)(1,3-thiazol-2-yl)]pyrazol-4-yl}-N-pentylcarboxamide] | elevate cellular expression of the ABCA-1 gene
16 | (2,4-difluorophenyl)-N-(4-naphthyl(1,3-thiazol-2-yl))carboxamide | elevate cellular expression of the ABCA-1 gene
17 | (3-chlorobenzo[b]thiophen-2-yl)-N-(ethynylcyclohexyl)carboxamide | elevate cellular expression of the ABCA-1 gene
18 | N-(2-phenylcyclopropyl)piperidylcarboxamide | elevate cellular expression of the ABCA-1 gene
19 | N-(4-naphthyl(1,3-thiazol-2-yl))(4-phenylphenyl)carboxamide | elevate cellular expression of the ABCA-1 gene
20 | N-(4-naphthyl(1,3-thiazol-2-yl))[3-(trifluoromethyl)phenyl]carboxamide | elevate cellular expression of the ABCA-1 gene
21 | N-(4-naphthyl(1,3-thiazol-2-yl))[4-(trifluoromethoxy)phenyl]carboxamide | elevate cellular expression of the ABCA-1 gene
22 | [4-(methylethyl)phenyl]-N-(4-oxo(1,3-thiazolin-2-yl))carboxamide | elevate cellular expression of the ABCA-1 gene
23 | [4-(tert-butyl)phenyl]-N-(4-naphthyl(1,3-thiazol-2-yl))carboxamide | elevate cellular expression of the ABCA-1 gene
24 | [((2E)-2-pentyl-3-phenylprop-2-enyl)({1-[(4-butylphenyl)carbonyl](4-piperidyl)}methyl)amino]-N-benzamide | elevate cellular expression of the ABCA-1 gene
25 | {1-[4-(3-methoxyphenyl)(1,3-thiazol-2-yl)]-5-methylpyrazol-4-yl}-N-(methylethyl)carboxamide | elevate cellular expression of the ABCA-1 gene
